Source: patent US9131697B2, “Spirocyclic isoxazolines as antiparasitic agents” (Zoetis Services LLC, priority 2012, dated 2015)

Key:
Ctenocephalides felis = experiment: Flea (Ctenocephalides felis) Membrane Feed Assay-Adult; details: adult fleas fed on treated citrated bovine blood, knockdown and/or death at 24 hours, lowest dose causing mortality ≥50%, read-out: Minimum Effective Concentration (MEC)
Description: Flea (Ctenocephalides felis) Membrane Feed Assay-Adult
Compounds of the present invention were dissolved in DMSO and aliquots added to citrated bovine blood in membrane covered wells pre-warmed to 37° C. Adult fleas were newly emerged (3-7 days) and unfed. Feeding wells containing approximately 10 adult fleas were placed onto the treated blood wells, and the fleas were allowed to feed on the treated blood for 24 hours. […] Each compound was tested at half-log intervals, and endpoint data was recorded as Minimum Effective Concentration (MEC) in μM. MEC is a subjective visual assessment of organism viability, and is the lowest dose observed to cause mortality≧50%.

Ornithidorus turicata = experiment: Soft Tick (Ornithidorus turicata) Blood Feed Assay; details: nymphs fed on treated citrated bovine blood; knockdown and/or death at 24 and 72 hours
Description: Soft Tick (Ornithidorus turicata) Blood Feed Assay
Compounds were dissolved in DMSO and aliquots were added to citrated bovine blood in membrane covered wells warmed to 37° C. 5 nymphs were placed on the membrane, allowed to feed to repleation, and were placed in observation wells. […] Endpoint results for subjective visual assessment of organism viability were recorded as LD100 (the lowest dose to cause 100% mortality).

Aedes aeqypti = experiment: Mosquito (Aedes aeqypti) Larval Assay - 1st Instar Larvae; details: first instar larvae, 25° C., motility at 24 hours, lowest dose to inhibit motility ≥50% of untreated controls, read-out: Minimum Effective Concentration (MEC)
Description: Mosquito (Aedes aeqypti) Larval Assay—1st Instar Larvae
Compounds were dissolved in DMSO and aliquots were spotted to empty wells. First instar larvae and maintenance media were added to the wells to obtain between 8 and 12 larvae per well in the appropriate final assay volume. Larvae were incubated in the treated media at 25° C. for 24 hours. Mosquito larvae motility was measured at 24 hours. Each compound was tested at half-log intervals, and endpoint results were recorded as Minimum Effective Concentration (MEC) in μM. MEC is an objective assessment of organism motility, and is the lowest dose to inhibit motility≧50% of untreated controls.

| Structure (SMILES) | minimal effective concentration (Ctenocephalides felis) | LD100 (the lowest dose to cause 100% mortality) (Ornithidorus turicata) | minimal effective concentration (Aedes aeqypti) |
| --- | --- | --- | --- |
| CS(=O)(=O)CC(=O)N1CC2(C1)OCc1cc(C3=NOC(c4cc(Cl)c(Cl)c(Cl)c4)(C(F)(F)F)C3)ncc12 (stereo not drawn) [Example 14, 2-(methylsulfonyl)-1-(6′-(5-(3,4,5-trichlorophenyl)-5-(trifluoromethyl)-4,5-dihydroisoxazol-3-yl)-1′H-spiro[azetidine-3,3′-furo[3,4-c]pyridine]-1-yl)ethanone] | 1 µM | 0.3 µg/mL | 0.01 µM |
| CS(=O)(=O)CC(=O)N1CC2(C1)OCc1cc(C3=NOC(c4cc(Cl)c(F)c(Cl)c4)(C(F)(F)F)C3)cnc12 (stereo not drawn) [Example 2, 3′-[5-(3,5-dichloro-4-fluorophenyl)-5-(trifluoromethyl)-4,5-dihydroisoxazol-3-yl]-1-[(methylsulfonyl)acetyl]-5′H-spiro[azetidin-3,7-furo[3,4,b]pyridine]] | 1 µM | 0.3 µg/mL | 0.03 µM |
| CC(C)C(=O)N1CC2(C1)OCc1cc(C3=NOC(c4cc(Cl)cc(Cl)c4)(C(F)(F)F)C3)ncc12 (stereo not drawn) [Example 18, 1-(6′-(5-(3,5-dichlorophenyl)-5-(trifluoromethyl)-4,5-dihydroisoxazol-3-yl)-1′H-spiro[azetidine-3,3′-furo[3,4-c]pyridine]-1-yl)-2-methylpropan-1-one] | 0.3 µM | 0.03 µg/mL | 0.01 µM |
| CC(C)C(=O)N1CC2(C1)OCc1cc(C3=NOC(c4cc(Cl)c(F)c(Cl)c4)(C(F)(F)F)C3)ncc12 (stereo not drawn) [Example 16, 1-(6′-(5-(3,5-dichloro-4-fluorophenyl)-5-(trifluoromethyl)-4,5-dihydroisoxazol-3-yl)-1′H-spiro[azetidine-3,3′-furo[3,4-c]pyridine]-1-yl)-2-methylpropan-1-one] | 0.1 µM | 0.03 µg/mL | 0.001 µM |
| CS(=O)(=O)CC(=O)N1CC2(C1)OCc1nc(C3=NOC(c4cc(Cl)c(Cl)c(Cl)c4)(C(F)(F)F)C3)ccc12 (stereo not drawn) [Example 9, 2-(methylsulfonyl)-1-(2′-(5-(3,4,5-trichlorophenyl)-5-(trifluoromethyl)-4,5-dihydroisoxazol-3-yl)-7′H-spiro[azetidine-3,5′-furo[3,4-b]pyridine]-1-yl)ethanone] |  |  | 0.3 µM |
| CC(C)C(=O)N1CC2(C1)OCc1cc(C3=NOC(c4cc(Cl)cc(Cl)c4)(C(F)(F)F)C3)cnc12 (stereo not drawn) [Example 5, 3′-[5-(3,5-dichlorophenyl)-5-(trifluoromethyl)-4,5-dihydroisoxazol-3-yl]-1-isobutyryl-5′H-spiro[azetidin-3,7′-furo[3,4,b]pyridine]] | 1 µM | 0.03 µg/mL | 0.03 µM |
| CC(C)C(=O)N1CC2(C1)OCc1nc(C3=NOC(c4cc(Cl)cc(Cl)c4)(C(F)(F)F)C3)ccc12 (stereo not drawn) [Example 11, 1-(2′-(5-(3,5-dichlorophenyl)-5-(trifluoromethyl)-4,5-dihydroisoxazol-3-yl)-7′H-spiro[azetidine-3,5′-furo[3,4-b]pyridine]-1-yl)-2-methylpropan-1-one] |  | 0.3 µg/mL | 0.3 µM |
| CS(=O)(=O)CC(=O)N1CC2(C1)OCc1cc(C3=NOC(c4cc(Cl)c(F)c(Cl)c4)(C(F)(F)F)C3)ncc12 (stereo not drawn) [Example 13, 1-(6′-(5-(3,5-dichloro-4-fluorophenyl)-5-(trifluoromethyl)-4,5-di hydroisoxazol-3-yl)-1′H-spiro[azetidine-3,3′-furo[3,4-c]pyridine]-1-yl)-2-(methylsulfonyl)ethanone] | 1 µM | 0.1 µg/mL | 0.01 µM |
| CS(=O)(=O)CC(=O)N1CC2(C1)OCc1nc(C3=NOC(c4cc(Cl)c(F)c(Cl)c4)(C(F)(F)F)C3)ccc12 (stereo not drawn) [Example 7, 1-(2′-(5-(3,5-dichloro-4-fluorophenyl)-5-(trifluoromethyl)-4,5-dihydroisoxazol-3-yl)-7′H-spiro[azetidine-3,5′-furo[3,4-b]pyridine]-1-yl)-2-(methylsulfonyl)ethanone] |  |  | 0.3 µM |
| CS(=O)(=O)CC(=O)N1CC2(C1)OCc1cc(C3=NOC(c4cc(Cl)c(Cl)c(Cl)c4)(C(F)(F)F)C3)cnc12 (stereo not drawn) [Example 3, 1-[(methylsulfonyl)acetyl]-3′-[5-(3,4,5-trichlorophenyl)-5-(trifluoromethyl)-4,5-dihydroisoxazol-3-yl]-5′H-spiro[azetidin-3,7′-furo[3,4,b]pyridine]] | 1 µM | 0.3 µg/mL | 0.03 µM |
| CS(=O)(=O)CC(=O)N1CC2(C1)OCc1cc(C3=NOC(c4cc(Cl)cc(Cl)c4)(C(F)(F)F)C3)ncc12 (stereo not drawn) [Example 15, 1-(6′-(5-(3,5-dichlorophenyl)-5-(trifluoromethyl)-4,5-dihydroisoxazol-3-yl)-1′H-spiro[azetidine-3,3′-furo[3,4-c]pyridine]-1-yl)-2-(methylsulfonyl)ethanone] | 3 µM |  | 0.03 µM |
| CS(=O)(=O)CC(=O)N1CC2(C1)OCc1nc(C3=NOC(c4cc(Cl)cc(Cl)c4)(C(F)(F)F)C3)ccc12 (stereo not drawn) [Example 8, 1-(2′-(5-(3,5-dichlorophenyl)-5-(trifluoromethyl)-4,5-dihydroisoxazol-3-yl)-7′H-spiro[azetidine-3,5′-furo[3,4-b]pyridine]-1-yl)-2-(methylsulfonyl)ethanone] |  |  | 0.3 µM |
| CC(C)C(=O)N1CC2(C1)OCc1cc(C3=NOC(c4cc(Cl)c(Cl)c(Cl)c4)(C(F)(F)F)C3)ncc12 (stereo not drawn) [Example 17, 2-methyl-1-(6′-(5-(3,4,5-trichlorophenyl)-5-(trifluoromethyl)-4,5-dihydroisoxazol-3-yl)-1′H-spiro[azetidine-3,3′-furo[3,4-c]pyridine]-1-yl)propan-1-one] | 0.1 µM | 0.03 µg/mL | 0.01 µM |
| CC(C)C(=O)N1CC2(C1)OCc1nc(C3=NOC(c4cc(Cl)c(Cl)c(Cl)c4)(C(F)(F)F)C3)ccc12 (stereo not drawn) [Example 12, 2-methyl-1-(2′-(5-(3,4,5-trichlorophenyl)-5-(trifluoromethyl)-4,5-dihydroisoxazol-3-yl)-7′H-spiro[azetidine-3,5′-furo[3,4-b]pyridine]-1-yl)propan-1-one] |  | 0.3 µg/mL | 0.1 µM |
| CC(C)C(=O)N1CC2(C1)OCc1cc(C3=NOC(c4cc(Cl)c(F)c(Cl)c4)(C(F)(F)F)C3)cnc12 (stereo not drawn) [Example 4, 3′-[5-(3,5-dichloro-4-fluorophenyl)-5-(trifluoromethyl)-4,5-dihydroisoxazol-3-yl]-1-isobutyryl-5′ H-spiro[azetidin-3,7′-furo[3,4,b]pyridine]] | 0.1 µM | 0.03 µg/mL | 0.01 µM |
| CC(C)C(=O)N1CC2(C1)OCc1cc(C3=NOC(c4cc(Cl)c(Cl)c(Cl)c4)(C(F)(F)F)C3)cnc12 (stereo not drawn) [Example 6, 1-isobutyryl-3′-[5-(3,4,5-trichlorophenyl)-5-(trifluoromethyl)-4,5-dihydroisoxazol-3-yl]-5′H-spiro[azetidin-3,7′-furo[3,4,b]pyridine]] | 1 µM | 0.03 µg/mL | 0.01 µM |
| CC(C)C(=O)N1CC2(C1)OCc1nc(C3=NOC(c4cc(Cl)c(F)c(Cl)c4)(C(F)(F)F)C3)ccc12 (stereo not drawn) [Example 10, 1-(2′-(5-(3,5-dichloro-4-fluorophenyl)-5-(trifluoromethyl)-4,5-dihydroisoxazol-3-yl)-7′H-spiro[azetidine-3,5′-furo[3,4-b]pyridine]-1-yl)-2-methylpropan-1-one] | 3 µM | 0.1 µg/mL | 0.03 µM |
| CS(=O)(=O)CC(=O)N1CC2(C1)OCc1cc(C3=NOC(c4cc(Cl)cc(Cl)c4)(C(F)(F)F)C3)cnc12 (stereo not drawn) [Example 1, 3′-[5-(3,5-dichlorophenyl)-5-(trifluoromethyl)-4,5-dihydroisoxazol-3-yl]-1-[(methylsulfonyl)acetyl]-5′H-spiro[azetidin-3,7′-furo[3,4,b]pyridine]] | 3 µM | 0.1 µg/mL | 0.1 µM |
